Measured values published in patent US20150119363A1, “METHODS OF TREATING BACTERIAL INFECTIONS” (Rampex Pharmaceuticals, Inc., priority 2012, published 2015).
Where a name gives a salt, the structure may show the parent alone. Read-outs that look alike come from different tables or passages of the source.

Assays:
[1] = tested on: Acinetobacter baumannii AB1054 (OXA-23); test: Checkerboard assay, biapenem potentiation (MPC8); type: cell-based; conditions: concentration to reduce biapenem MIC 8-fold
Protocol: (§1) The potency and spectrum of β-lactamase inhibitors was determined by assessing their antibiotic potentiation activity.
(§2) The potentiation effect is observed by the reduction of the minimum inhibitory concentration of β-lactam antibiotics in the presence of β-lactamase inhibitors (BLIs). […] Methods for Dilution of Antimicrobial Susceptibility Tests for Bacteria That Grow Aerobically—Eighth Edition; Approved Standard. CLSI Document M07-A8, 2009). In this assay, multiple dilutions of two drugs, namely BLI and β-lactam (biapenem), are being tested, alone and in combination, at concentrations equal to, above and below their respective minimal inhibitory concentrations (MICs). BLIs are solubilized in 10% DMSO at 10 mg/mL. Stock solutions are further diluted, according to the needs of a particular assay, in Mueller Hinton Broth (MHB). Stock solution can be stored at −80° C.
(§3) The checkerboard (CB) assay is performed in microtiter plates. Biapenem is diluted in the x axis, each column containing a single concentration of antibiotic. BLIs are diluted in the y axis, each row containing an equal concentration of BLI. The result of these manipulations is that each well of the microtiter plate contains a unique combination of concentrations of the two agents. The assay is performed in MHB with a final bacterial inoculum of 5×10^5 CFU/mL (from an early-log phase culture). Microtiter plates are incubated during 20 h at 35° C. and are read using a microtiter plate reader (Molecular Devices) at 650 nm as well as visual observation using a microtiter plate reading mirror.
(§4) Biapenem is a carbapenem β-lactam; only selected β-lactamases confer resistance to this class of antibiotics. Among them are serine carbapemenases that belong to class A and class D. Biapenem potentiation is studied in strains expressing various carbapenemases from these classes using CB assays. […] Cyclic boronic acid derivatives were capable of reducing biapenem MICs up to 1000-fold (Table 3).

[2] = tested on: Acinetobacter baumannii AB1057 (OXA-58); test: Checkerboard assay, biapenem potentiation (MPC8); type: cell-based; conditions: concentration to reduce biapenem MIC 8-fold
Protocol: as §1, §2, §3, §4

[3] = tested on: Klebsiella pneumoniae KP1004 (KPC-2); test: Checkerboard assay, biapenem potentiation (MPC8); type: cell-based; conditions: concentration to reduce biapenem MIC 8-fold
Protocol: as §1, §2, §3, §4

[4] = molecular target: T1, KPC-2 (Klebsiella pneumoniae KP1004 lysate) (Klebsiella pneumoniae, UniProt Q9F663); test: Inhibition of biapenem hydrolysis by bacterial lysate; type: biochemical
T1 construct: Lysates were prepared from bacteria expressing various β-lactamases as a source of enzymes; endogenous in cells; host or cells: Klebsiella pneumoniae strains KP1004 and KP1008 (freeze-thaw lysate supernatants)
T1 sequence (Q9F663 25-293 limits assumed): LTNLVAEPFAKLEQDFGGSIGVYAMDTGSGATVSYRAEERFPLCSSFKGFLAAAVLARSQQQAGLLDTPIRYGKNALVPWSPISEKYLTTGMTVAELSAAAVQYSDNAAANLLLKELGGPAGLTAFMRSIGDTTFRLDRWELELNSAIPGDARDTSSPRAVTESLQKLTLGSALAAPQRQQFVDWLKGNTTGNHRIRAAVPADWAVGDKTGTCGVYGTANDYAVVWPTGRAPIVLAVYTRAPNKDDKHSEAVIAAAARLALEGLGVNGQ
Protocol: (§5) The activity of β-lactamase inhibitors to inhibit hydrolysis of biapenem was studied. Lysates were prepared from bacteria expressing various β-lactamases as a source of enzymes. Bacterial lysates were prepared as follows. A single colony from the fresh overnight plate was transferred to 5 mL of LB broth and grown to OD600=0.6-0.8. Next, this culture was transferred to 500 mL of LB and grown to OD600=0.7-0.9. Cells were pelleted by centrifugation at 5000 RPM (JA-14 rotor) for 15 minutes at room temperature. The pellet was resuspended in 10 mL of PBS. Five freeze-thaw cycles by putting cells at −20° C. and thawing them at the room temperature were next applied. After the last thaw step cells were spun down at 18K for 30 minutes and the supernatant was collected. This lysate was stored at −20° C.
(§6) Next, the activity of bacterial lysates was optimized for biapenem cleavage as follows. 50 μl of buffer A (50 mM Sodium Phosphate pH=7; 0.5% glucose, 1 mM MgCl2) was added to each well of 96-well UV-transparent plate. 50 μl of lysate was titrated vertically in 96-well plate column to generate 2-fold lysate dilutions. 100 μl of buffer A was added to each well, placed in plate reader at 37° C. and incubated for 15 minutes. 50 μl of 50 μg/mL solutions of biapenem in buffer A (pre-incubated at 37° C. for 15 minutes) were added to each well. Hydrolysis of biapenem was measured at 296 nm. This experiment was used to determine the optimal lysate dilution which produced a linear curve of relative UV signal that decreased to approximately OD=0.3-0.5 over 1 hour.
(§7) Finally, the potency of cyclic boronic acid derivative to inhibit the cleavage of biapenem cleavage by bacterial lysates was determined. 100 μl of buffer A (50 mM Sodium Phosphate pH=7; 0.5% glucose, 1 mM MgCl2) was added to each well of 96-well UV-transparent plate. 50 μl of 6× cyclic boronic acid derivative solution in buffer A was titrated vertically in 96-well plate column to generate 3-fold dilutions. 50 μl of diluted lysate in buffer A (optimal dilution is determined in experiment above) was added, and the plate was incubated in the plate reader at 37° C. for 15 minutes. 50 μl of 50 μg/mL solution of biapenem in buffer A (pre-incubated at 37° C. for 15 minutes) were next added to each well and hydrolysis of biapenem was recorded at 296 nm. EC50 of inhibition was determined by plotting the rate of biapenem cleavage vs. cyclic boronic acid derivative concentration.

[5] = molecular target: T2, KPC-2 (Klebsiella pneumoniae KP1008 lysate) (Klebsiella pneumoniae, UniProt Q9F663); test: as above; type: biochemical
T2 construct: Lysates were prepared from bacteria expressing various β-lactamases as a source of enzymes; endogenous in cells; host or cells: Klebsiella pneumoniae strains KP1004 and KP1008 (freeze-thaw lysate supernatants)
T2 sequence (Q9F663 25-293 limits assumed): as above
Protocol: as §5, §6, §7

[6] = molecular target: T3, KPC-3 (Escherichia coli EC1007 lysate) (Klebsiella pneumoniae, UniProt Q9F663, H272Y); test: as above; type: biochemical
T3 construct: Lysates were prepared from bacteria expressing various β-lactamases as a source of enzymes; endogenous in cells; host or cells: Escherichia coli strain EC1007 (freeze-thaw lysate supernatant)
T3 sequence (Q9F663 25-293 H272Y): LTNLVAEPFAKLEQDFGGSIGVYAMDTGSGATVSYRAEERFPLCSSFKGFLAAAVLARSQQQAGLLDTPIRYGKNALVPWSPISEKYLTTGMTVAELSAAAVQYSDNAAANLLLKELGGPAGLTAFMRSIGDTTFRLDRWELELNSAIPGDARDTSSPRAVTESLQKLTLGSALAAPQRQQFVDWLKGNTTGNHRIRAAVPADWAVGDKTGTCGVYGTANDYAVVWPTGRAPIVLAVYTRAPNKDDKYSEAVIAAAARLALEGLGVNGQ
Protocol: as §5, §6, §7

[7] = molecular target: T4, SME-2 (Serratia marcescens SM1000 lysate) (Serratia marcescens, UniProt P52682); test: as above; type: biochemical
T4 construct: Lysates were prepared from bacteria expressing various β-lactamases as a source of enzymes
T4 sequence (P52682 28-294 limits assumed): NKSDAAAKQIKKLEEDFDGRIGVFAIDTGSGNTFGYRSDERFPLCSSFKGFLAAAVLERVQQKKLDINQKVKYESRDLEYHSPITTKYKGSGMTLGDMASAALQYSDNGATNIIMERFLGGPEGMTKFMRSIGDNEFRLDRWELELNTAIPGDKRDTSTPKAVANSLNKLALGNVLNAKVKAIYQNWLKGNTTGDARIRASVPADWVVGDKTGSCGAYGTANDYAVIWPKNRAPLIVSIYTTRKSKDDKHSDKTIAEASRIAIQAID
Protocol: as §5, §6, §7

[8] = tested on: KP1004 KPC-2; test: Dose titration biapenem potentiation assay (MPC1); type: cell-based, Klebsiella pneumoniae; conditions: biapenem 1 μg/mL
Protocol: (§8) The potency and spectrum of β-lactamase inhibitors is also determined by assessing their biapenem potentiation activity in a dose titration potentiation assay using strains expressing serine carbapemenases (such as KPC). The potentiation effect is observed as the ability of BLI compounds to inhibit growth in the presence of sub-inhibitory concentration of biapenem. […] Biapenem is present in the test medium at 1 μg/mL. Compounds tested at the highest concentration of 40 μg/mL. […] Table 5 summarizes BLI potency of biapenem potentiation (MPC1). Biapenem MIC for each strain is also shown.

[9] = tested on: KP1008 KPC-2; test: Dose titration biapenem potentiation assay (MPC1); type: cell-based, Klebsiella pneumoniae; conditions: biapenem 1 μg/mL
Protocol: as §8

[10] = tested on: EC1007 KPC-3; test: Dose titration biapenem potentiation assay (MPC1); type: cell-based, Escherichia coli; conditions: biapenem 1 μg/mL
Protocol: as §8

[11] = tested on: ECL1004 NMC-A; test: Dose titration biapenem potentiation assay (MPC1); type: cell-based, Enterobacter cloacae; conditions: biapenem 1 μg/mL
Protocol: as §8

[12] = EC1007 KPC-3 lysate, read-out: IC50 (μg/mL) of inhibition of biapenem hydrolysis
[13] = SM1000 SME-2 lysate; read-out: IC50 (μg/mL) of inhibition of biapenem hydrolysis
[14] = read-out: IC50 (μg/mL) of inhibition of biapenem hydrolysis; SM1000 SME-2 lysate

Structure (SMILES) | MPC8 [1] | MPC8 [2] | MPC8 [3] | IC50 [4] | IC50 [5] | IC50 [6, 12] | IC50 [7, 13] | BPM MPC1 KP1004 KPC-2 [8] | BPM MPC1 KP1008 KPC-2 [9] | BPM MPC1 EC1007 KPC-3 [10] | BPM MPC1 ECL1004 NMC-A [11] | IC50 [6] | IC50 [7, 14] | BPM MPC1 KP1004 KPC-2 ([8]; numeric value) | BPM MPC1 KP1008 KPC-2 ([9]; numeric value) | BPM MPC1 EC1007 KPC-3 ([10]; numeric value) | BPM MPC1 ECL1004 NMC-A ([11]; numeric value)
O=C(O)CC1CC[C@H](NC(=O)C2CC2)B(O)O1 (stereo partly drawn) [Compound 4, 2-((3R)-3-(cyclopropanecarboxamido)-2-hydroxy-1,2-oxaborinan-6-yl)acetic acid] | Z (Z = MPC8 of greater than 1 μg/mL.) | Z (Z = MPC8 of greater than 1 μg/mL.) | X (X = MPC8 of less than 0.16 μg/mL.) | 0.415 to 4.15 µM | > 4.15 µM | 0.415 to 4.15 µM | 0.415 to 4.15 µM | X (X = MPC1 of less than 1 μg/mL.) | X (X = MPC1 of less than 1 μg/mL.) | X (X = MPC1 of less than 1 μg/mL.) | X (X = MPC1 of less than 1 μg/mL.) | – | – | – | – | – | –
O=C(O)C[C@@H]1CC[C@H](NC(=O)Cc2ccccc2)B(O)O1 [Compound 6, 2-((3R,6S)-2-hydroxy-3-(2-phenylacetamido)-1,2-oxaborinan-6-yl)acetic acid] | X (X = MPC8 of less than 0.16 μg/mL.) | Z (Z = MPC8 of greater than 1 μg/mL.) | X (X = MPC8 of less than 0.16 μg/mL.) | 0.344 to 3.44 µM | 0.344 to 3.44 µM | < 0.344 µM | 0.344 to 3.44 µM | X (X = MPC1 of less than 1 μg/mL.) | X (X = MPC1 of less than 1 μg/mL.) | X (X = MPC1 of less than 1 μg/mL.) | X (X = MPC1 of less than 1 μg/mL.) | – | – | – | – | – | –
N[C@H]1CCC(CC(=O)O)OB1O (stereo partly drawn) [Compound 7, 2-((3R)-3-amino-2-hydroxy-1,2-oxaborinan-6-yl)acetic acid hydrochloride] | – | – | – | – | – | – | – | – | – | – | – | > 5.78 µM | > 5.78 µM | – | – | – | –
C[C@]1(Cn2ccnn2)[C@H](C(=O)O)N2C(=O)C[C@H]2S1(=O)=O [Tazobactam, reference compound] | – | – | – | > 3.33 µM | > 3.33 µM | – | – | – | – | – | – | > 3.33 µM | 0.333 to 3.33 µM | 40 µg/mL | 0.3 µg/mL | 5 µg/mL | 0.6 µg/mL
